Marks after values point to notes of the source that are not given here.
Tests used:
Type in all cases: cell-based
[1] = system: F. nucleatum virulence genes; assay: Virulence gene expression in multi-species biofilm (SYBR RT-qPCR); conditions: relative to control = 1, 2^-ΔΔCt, n = 3
Protocol: (§1) Biofilms are grown vertically on Calcium Deficient Hydroxyapatite (CAD-HA) disks (Hitemco Medical, Old Bethpage, USA) using the Amsterdam Active Adhesion model. Biofilms are allowed to establish during 24 h (37° C., 170 rpm) under microaerophilic conditions (6% O2, 7% CO2, 7% H2, 80% N2). After this 24 h, disks are rinsed 3 times a day for 3 minutes (RT, 250 rpm), for 3 consecutive days, by transferring the lid containing the disks to a new 24-well plate containing 2 mL/well of the appropriate substrate solution. As a negative control, PBS (pH 5.7) without substrate supplementation is used.
(§2) The virulence of the substrate-treated multi-species biofilms are evaluated by analyzing the relative expression of 33 genes that are recognized as being related to some form of virulence and from 4 periodontal pathogens.
(§3) Expression of bacterial virulence genes is analyzed through SYBR RT-qPCR and normalized for bacterial housekeeping gene expression. […] These effects are illustrated in Tables 6a and 6b:
Note, for Table 6c, fold changes in virulence gene expression are determined relative to the control condition through the 2^^-ΔΔCt method and are shown as the geometric mean (C.I.) (n = 3) of the 2^^-ΔΔCt values. All substrates are dissolved in PBS at a concentration of 1 M (upper part) or 1%(w/v) (lower part). Values between 0 and 1 represent relative downregulation, values >1 represent relative upregulation. […] NADG: N-acetyl-D-glucosamine; C.I.: 95% confidence interval.

[2] = system: A. actinomycetemcomitans virulence genes; assay: as above
Protocol: as §1, §2, §3
(§4) Note, for Tables 6a and 6b, that fold changes in virulence gene expression are determined relative to the control condition through the 2^^-ΔΔCt method and are shown as the geometric mean (C.I.) (n = 3) of the 2^^-ΔΔ ^Ct values. All substrates are dissolved in PBS at a concentration of 1 M (upper part) or 1%(w/v) (lower part). Values between 0 and 1 represent relative downregulation, values >1 represent relative upregulation. […] NADG: N-acetyl-D-glucosamine; C.I.: 95% confidence interval.

[3] = system: P. gingivalis virulence genes; assay: as above; conditions: relative to control, 2^-ΔΔCt, n = 3
Protocol: as §1, §2, §3, §4

A. viscosus = assay: Multi-species biofilm composition, absolute abundance (Geq/mL); conditions: repeated rinsing
Protocol: as §1
(§5) N-acetyl-D-glucosamine (NADG), α-D-lactose, D-(+)-trehalose and D-(+)-raffinose are selected to determine their effects on multi-species biofilm composition. […] decrease in absolute numbers in at least four of the pathogenic bacterial species tested in the assay, in comparison to the control, the results of which are described in Table 1 below. Note, NADG decreased absolute numbers of S. sobrinus. Absolute abundances of bacterial species are shown as mean ± SD (n = 3) logarithmic values of the genome equivalents per millilitre (log(Geq/mL)).

S. sanguinis = assay: as above; conditions: repeated rinsing
Protocol: as §1, §5

S. salivarius = assay: as above; conditions: repeated rinsing
Protocol: as §1, §5

S. mutans = assay: as above; conditions: repeated rinsing
Protocol: as §1, §5

V. parvula = assay: as above; conditions: repeated rinsing
Protocol: as §1, §5

F. nucleatum = assay: as above; conditions: repeated rinsing
Protocol: as §1, §5

[4] = system: human oral keratinocytes (HOK-18A); assay: Inflammatory mediator gene expression in keratinocytes exposed to substrate-treated biofilms (SYBR RT-qPCR); conditions: relative to control, n = 3
Protocol: Cultures of immortalized human oral keratinocytes (HOK-18A) are grown. […] The IL-8 levels in the cellular supernatant are determined as well. RNA is converted to cDNA and relative expression of inflammatory mediator genes is determined as described above with respect to the cellular housekeeping gene β-actin.
In HOKs exposed to substrate-treated (substrate concentrations of […]) multi-species biofilms, there are mostly decreases in inflammatory mediator gene expression as measured via SYBR RT-qPCR, the results of which are detailed in Table 7:
Fold changes in inflammatory mediator gene expression from human oral keratinocytes (HOK-18A) exposed to substrate-treated multi-species biofilms are determined relatively to the control through the 2^^-ΔΔCt method and are shown as the geometric mean (C.I.) (n = 3) of the 2^^-ΔΔCt values. All substrates are dissolved in PBS at a concentration of 1 M (upper part) or 1%(w/v) (lower part). Values between 0 and 1 represent relative downregulation, values >1 represent relative upregulation.

[5] = lower part of Table 6a, substrate 1%(w/v), relative to control = 1
[6] = substrate 1 M, relative to control = 1, 2^-ΔΔCt, n = 3
[7] = HOK-18A exposed to biofilms treated with substrate 1% (w/v)
[8] = HOK-18A exposed to biofilms treated with substrate 1 M

SMILES: OC[C@H]1O[C@H](OC[C@H]2O[C@H](O[C@]3(CO)O[C@H](CO)[C@@H](O)[C@@H]3O)[C@H](O)[C@@H](O)[C@@H]2O)[C@H](O)[C@@H](O)[C@H]1O [D-raffinose, D-(+)-raffinose]
- fold change in ABC transp. perm. (ABC transporter permease) expression, geometric mean (95% C.I.) ([1]; substrate 1% (w/v)): 0.17 (0.04-0.65)^∗ fold
- fold change in EF-G expression, geometric mean (95% C.I.) ([1]; substrate 1% (w/v)): 0.12 (0.04-0.33)^∗ fold
- fold change in but. -coA transf. (butyrate-acetoacetate CoA-transferase) expression, geometric mean (95% C.I.) ([1]; substrate 1% (w/v)): 0.47 (0.06-3.98) fold
- fold change in hemin receptor expression, geometric mean (95% C.I.) ([1]; substrate 1% (w/v)): 0.12 (0.09-0.15)^∗ fold
- fold change in hemolysin expression, geometric mean (95% C.I.) ([1]; substrate 1% (w/v)): 0.51 (0.16-1.62)^∗ fold
- fold change in ompA expression, geometric mean (95% C.I.) ([1]; substrate 1% (w/v)): 0.70 (0.20-2.44) fold
- fold change in transposase expression, geometric mean (95% C.I.) ([1]; substrate 1% (w/v)): 0.78 (0.40-1.53) fold
- fold change in ABC transp. perm. (ABC transporter permease) expression, geometric mean (95% C.I.) ([1]; substrate 1 M): 41.25 (11.65-146.10)^∗ fold
- fold change in EF-G expression, geometric mean (95% C.I.) ([1]; substrate 1 M): 1.41 (0.70-2.83) fold
- fold change in but. -coA transf. (butyrate-acetoacetate CoA-transferase) expression, geometric mean (95% C.I.) ([1]; substrate 1 M): 3.95 (0.89-17.60)* fold
- fold change in hemin receptor expression, geometric mean (95% C.I.) ([1]; substrate 1 M): 18.04 (7.92-41.14)^∗ fold
- fold change in hemolysin expression, geometric mean (95% C.I.) ([1]; substrate 1 M): 2.50 (1.07-5.83)^∗ fold
- fold change in ompA expression, geometric mean (95% C.I.) ([1]; substrate 1 M): 1.07 (0.49-2.36) fold
- fold change in transposase expression, geometric mean (95% C.I.) ([1]; substrate 1 M): 251.47 (75.27-840.20)^∗ fold
- fold change in aae expression, geometric mean (95% C.I.) [2, 5]: 1.34 (0.38-4.68) fold
- fold change in apaH expression, geometric mean (95% C.I.) [2, 5]: 0.91 (0.48-1.73) fold
- fold change in cdtB expression, geometric mean (95% C.I.) [2, 5]: 0.73 (0.16-3.39) fold
- fold change in emaA expression, geometric mean (95% C.I.) [2, 5]: 0.59 (0.13-2.77) fold
- fold change in flp expression, geometric mean (95% C.I.) [2, 5]: 0.89 (0.40-1.99) fold
- fold change in ltxA expression, geometric mean (95% C.I.) [2, 5]: 0.30 (0.12-0.79) fold
- fold change in omp29 expression, geometric mean (95% C.I.) [2, 5]: 0.87 (0.26-2.87) fold
- fold change in omp100 expression, geometric mean (95% C.I.) [2, 5]: 0.31 (0.09-1.08)^∗ fold
- fold change in orf859 expression, geometric mean (95% C.I.) [2, 5]: 1.66 (0.86-3.20) fold
- fold change in pgA expression, geometric mean (95% C.I.) [2, 5]: 0.99 (0.38-2.55) fold
- fold change in vapA expression, geometric mean (95% C.I.) [2, 5]: 1.14 (0.40-3.20) fold
- fold change in vppA expression, geometric mean (95% C.I.) [2, 5]: 1.08 (0.53-2.18) fold
- fold change in aae expression, geometric mean (95% C.I.) [2, 6]: 0.16 (0.05-0.47)^∗ fold
- fold change in apaH expression, geometric mean (95% C.I.) [2, 6]: 0.11 (0.02-0.73)^∗ fold
- fold change in cdtB expression, geometric mean (95% C.I.) [2, 6]: 0.07 (0.02-0.25)^∗ fold
- fold change in emaA expression, geometric mean (95% C.I.) [2, 6]: 0.09 (0.03-0.29)^∗ fold
- fold change in flp expression, geometric mean (95% C.I.) [2, 6]: 0.45 (0.17-1.22) fold
- fold change in ltxA expression, geometric mean (95% C.I.) [2, 6]: 0.01 (0.01-0.03)^∗ fold
- fold change in omp29 expression, geometric mean (95% C.I.) [2, 6]: 1.37 (0.34-5.47) fold
- fold change in omp100 expression, geometric mean (95% C.I.) [2, 6]: 0.09 (0.02-0.43)^∗ fold
- fold change in orf859 expression, geometric mean (95% C.I.) [2, 6]: 0.02 (0.01-0.05)^∗ fold
- fold change in pgA expression, geometric mean (95% C.I.) [2, 6]: 7.26 (2.09-25.17)^∗ fold
- fold change in vapA expression, geometric mean (95% C.I.) [2, 6]: 0.50 (0.13-1.94) fold
- fold change in vppA expression, geometric mean (95% C.I.) [2, 6]: 0.05 (0.04-2.42)^∗ fold
- fold change in pgA expression, geometric mean (95% C.I.) ([2]; substrate 1 M, relative to control = 1, 2^-ΔΔCt, n = 3, listed as D-(+)-raffinose): 7.3 fold
- fold change in fimA expression, geometric mean (95% C.I.) ([3]; substrate 1 % (w/v)): 1.47 (0.92-2.34) fold
- fold change in kgp expression, geometric mean (95% C.I.) ([3]; substrate 1 % (w/v)): 1.77 (0.74-4.21) fold
- fold change in partC expression, geometric mean (95% C.I.) ([3]; substrate 1 % (w/v)): 0.54 (0.26-1.12) fold
- fold change in rgpA expression, geometric mean (95% C.I.) ([3]; substrate 1 % (w/v)): 1.42 (1.12-1.80) fold
- fold change in fimA expression, geometric mean (95% C.I.) ([3]; substrate 1 M): 0.03 (0.00-0.16)* fold
- fold change in kgp expression, geometric mean (95% C.I.) ([3]; substrate 1 M): <LOD
- fold change in partC expression, geometric mean (95% C.I.) ([3]; substrate 1 M): 0.02 (0.00-0.12)^∗ fold
- fold change in rgpA expression, geometric mean (95% C.I.) ([3]; substrate 1 M): 0.01 (0.00-0.10)^∗ fold
- absolute abundance of A. viscosus (Av), mean ± SD log (Geq/mL) (A. viscosus; substrate 1% (w/v)): 7.77 ± 0.14 log (Geq/mL)
- absolute abundance of A. viscosus (Av), mean ± SD log (Geq/mL) (A. viscosus; substrate 1 M in PBS, n = 3): 7.08 ± 0.59 log (Geq/mL)
- absolute abundance of S. sanguinis, mean ± SD log (Geq/mL) (S. sanguinis; substrate 1% (w/v)): 8.56 ± 0.11 log (Geq/mL)
- absolute abundance of S. sanguinis, mean ± SD log (Geq/mL) (S. sanguinis; substrate 1 M in PBS, n = 3): 6.39 ± 0.51 log (Geq/mL)
- absolute abundance of S. salivarius, mean ± SD log (Geq/mL) (S. salivarius; substrate 1% (w/v)): 2.65 ± 0.00 log (Geq/mL)
- absolute abundance of S. salivarius, mean ± SD log (Geq/mL) (S. salivarius; substrate 1 M in PBS, n = 3): 6.29 ± 0.21^∗ log (Geq/mL)
- absolute abundance of S. mutans, mean ± SD log (Geq/mL) (S. mutans; substrate 1% (w/v)): 7.46 ± 0.16 log (Geq/mL)
- absolute abundance of S. mutans, mean ± SD log (Geq/mL) (S. mutans; substrate 1 M in PBS, n = 3): 8.24 ± 0.17^∗ log (Geq/mL)
- absolute abundance of V. parvula (VP), mean ± SD log (Geq/mL) (V. parvula; substrate 1% (w/v)): 9.83 ± 0.09 log (Geq/mL)
- absolute abundance of V. parvula (VP), mean ± SD log (Geq/mL) (V. parvula; substrate 1 M in PBS, n = 3): 9.88 ± 0.07 log (Geq/mL)
- absolute abundance of F. nucleatum (Fn), mean ± SD log (Geq/mL) (F. nucleatum; substrate 1% (w/v)): 9.40 ± 0.10 log (Geq/mL)
- absolute abundance of F. nucleatum (Fn), mean ± SD log (Geq/mL) (F. nucleatum; substrate 1 M in PBS, n = 3): 6.73 ± 0.06^∗ log (Geq/mL)
- fold change in IL-1β gene expression, geometric mean (C.I.) [4, 7]: 0.93 (0.56-1.55) fold
- fold change in IL-6 gene expression, geometric mean (C.I.) [4, 7]: 0.70 (0.44-1.13)^∗ fold
- fold change in IL-8 gene expression, geometric mean (C.I.) [4, 7]: 1.08 (0.73-1.59) fold
- fold change in MMP-8 gene expression, geometric mean (C.I.) [4, 7]: 0.71 (0.38-1.35) fold
- fold change in TNF-α gene expression, geometric mean (C.I.) [4, 7]: 0.77 (0.55-1.08) fold
- fold change in IL-1β gene expression, geometric mean (C.I.) [4, 8]: 0.8 (0.44-1.46) fold
- fold change in IL-6 gene expression, geometric mean (C.I.) [4, 8]: 0.54 (0.17-1.72) fold
- fold change in IL-8 gene expression, geometric mean (C.I.) [4, 8]: 0.10 (0.04-0.29)^∗ fold
- fold change in MMP-8 gene expression, geometric mean (C.I.) [4, 8]: 0.85 (0.61-1.19) fold
- fold change in TNF-α gene expression, geometric mean (C.I.) [4, 8]: 0.66 (0.56-0.78)^∗ fold

Reference: patent publication US20230346670A1, “Prebiotic Oral Care Compositions and Methods” (Colgate-Palmolive Company, priority 2020, published 2023)
